Test results: patent US9353419B2, “Biomarkers for IAP inhibitor therapy” (Novartis AG, priority 2012, dated 2016)

Assays:
[1] = test system: panel of >500 tumor cell lines; test: 72 hour proliferation assay, single agent cellular activity against tumor cell line panel; format: cell-based
Text: We used a statistical framework that integrates pharmacological data together with genetic and mRNA expression data in order to develop biomarkers for predicting response to IAP inhibitors. Using genomic data generated as part of the Cancer Cell Line Encyclopedia collection (Barretina J S, Caponigro G, Stransky N et al (2012) Nature; 483:603-7), we assembled gene copy number, mRNA expression and mutation data into a single matrix. Single agent cellular activity of various IAP antagonists was assessed against a panel of >500 tumor cell lines using a 72 hour proliferation assay. We classified these cell lines into sensitive, intermediate and refractory classes based on the distribution of IC50 data and manual curation of individual responses. A statistical test was applied in order to identify genomic “features” that could differentiate IAP antagonist-sensitive cell lines from refractory lines. Among the top-ranked genes showing differential mRNA expression were TNF and RIPK1, two genes with evidence for apoptotic response to IAP antagonists based on previous experimental studies involving one or a few cell lines. We are thus able to extend prior observations on limited experiments systematically to a large set of data and identified an additional set of seven genes (CXLC10, CCL5, NFKBIA, HERC5, CDYL, STK39 and MAPK14), whose mRNAs were differentially expressed in sensitive compared refractory lines.
We built a predictive machine learning model using the Naive Bayes classifier based on the 9-gene signature as well as a 2-gene TNF/RIPK1 signature. […] For example, at model cutoffs optimized to obtain balanced performance between sensitivity and specificity for each model, the signatures yielded response rates of 16-18% in cross-validation compared to 8% response rate at random without any selection. This improved response rate was further validated in independent experimental testing of a compound-naive set of cell lines that were predicted to be sensitive (AUCs in Table 2).

[2] = test system: patient-derived tumor models representing triple negative breast cancer, NSCLC and pancreatic cancer; test: single agent activity in patient-derived tumor models (primary human tumors grown as xenografts in mice); format: in vivo
Text: In addition, (S)—N—((S)-1-Cyclohexyl-2-{(S)-2-[4-(4-fluoro-benzoyl)-thiazol-2-yl]-pyrrolidin-1-yl}-2-oxo-ethyl)-2-methylamino-propionamide has been tested for single agent activity in 55 patient-derived tumor models representing triple negative breast cancer, NSCLC and pancreatic cancer models.

In the case of `CN[C@@H](C)C(=O)N[C@H](C(=O)N1CCC[C@H]1c1nc(C(=O)c2ccc(F)cc2)cs1)C1CCCCC1` [(S)—N—((S)-1-Cyclohexyl-2-{(S)-2-[4-(4-fluoro-benzoyl)-thiazol-2-yl]-pyrrolidin-1-yl}-2-oxo-ethyl)-2-methylamino-propionamide], the “cell line response rate” value ([1]; at random, without any selection ("all-comers" cell lines)) is reported as 8%, the “increase in response rate compared to random or "all-comers" cell lines” value ([1]; at several model cutoff regimes of the predictive signatures) is reported as “two- to three-fold” and the “cell line response rate” value ([1]; cell lines selected by gene signatures (2-gene, 9-gene), balanced model cutoffs, cross-validation) is reported as 16-18%. For the same molecule, the “single agent activity (range of responses)” value ([2]; 55 patient-derived tumor models) was “ranging from tumor regression to no effect”, the response rate ([2]; at random, 55 patient-derived tumor models) was 11% and the response rate ([2]; models selected by 2-gene, 3-gene and 9-gene signatures, balanced model cutoffs) was about 30%.
